The species entered for the first assay is Rattus norvegicus. The experiment in a line: Reduction in spontaneous neuronal firing in Sprague-Dawley rat at 10 uM. The class given is functional.
Turning to `O=C(O)c1ccc2c(c1)[C@@H]1C=CC[C@@H]1[C@@H](c1ccc(Cl)cc1Cl)N2`, the “inhibition (INH)” value is 75%.

Test system in the next assay: not listed separately
The experiment in a line: Agonist activity at human BKCa channel expressed in CHO cells assessed as increase in potassium current at 10 uM by PatchXpress electrophysiology assay relative to control. The class given is functional.
As to `O=C(O)c1ccc2c(c1)[C@@H]1C=CC[C@@H]1CN2`, the “fold change (FC)” value was found to be 0.6. Still for that read-out and setting: for `Cc1ccc([C@H]2Nc3ccc(C(=O)O)cc3[C@@H]3C=CC[C@H]23)c(C)c1` the value was 8.9; for `Cn1cc([C@H]2Nc3ccc(C(=O)O)cc3[C@@H]3C=CC[C@H]23)cn1`, 1. Take `CC(C)(C)[C@H]1Nc2ccc(C(=O)O)cc2[C@@H]2C=CC[C@@H]21`: the “fold change (FC)” value worked out at 0.8. The same measure, in the same setting: the value for `O=C(O)c1ccc2c(c1)[C@@H]1C=CC[C@@H]1[C@@H](c1ccccc1)N2` was 1.2.

For `Cc1cccc([C@H]2Nc3ccc(C(=O)O)cc3[C@@H]3C=CC[C@H]23)c1`, the “fold change (FC)” value was 3.1. Take `O=C(O)c1ccc2c(c1)[C@@H]1C=CC[C@@H]1[C@@H](c1ccc(Cl)cc1Cl)N2`: the “fold change (FC)” value is listed as 11.2. Still for that read-out and setting: for `O=C(O)c1ccc2c(c1)[C@@H]1C=CC[C@@H]1[C@@H](c1ccccc1Cl)N2` the value was 4.9; for `O=C(O)c1ccc2c(c1)[C@@H]1C=CC[C@@H]1[C@@H](c1ccc(Cl)cc1)N2`, 7.3.

In the case of `O=C(O)c1ccc2c(c1)[C@@H]1C=CC[C@@H]1[C@@H](c1cccc(Cl)c1Cl)N2`, the “fold change (FC)” value was 2.7.

As for `O=C(O)c1ccc2c(c1)[C@@H]1C=CC[C@@H]1[C@@H](c1cccc(Br)c1)N2`, the “fold change (FC)” value is reported as 2.6. As for `O=C(O)c1ccc2c(c1)[C@@H]1C=CC[C@@H]1[C@@H](c1ccc(Cl)c(Cl)c1)N2`, the “fold change (FC)” value is 12.1. On the same count and under the same terms, for `O=C(O)c1ccc2c(c1)[C@@H]1C=CC[C@@H]1[C@@H](c1cccc(Cl)c1)N2` the value was 2.2; for `O=C(O)c1ccc2c(c1)[C@@H]1C=CC[C@@H]1[C@@H](c1ncc(Cl)cc1Cl)N2`, 2.5. Still for that read-out and setting: the value for `O=C(O)c1ccc2c(c1)[C@@H]1C=CC[C@@H]1[C@@H](c1ccc(C(F)(F)F)cc1)N2` was 6. Same read-out and setting: for `O=C(O)c1ccc2c(c1)[C@@H]1C=CC[C@@H]1[C@@H](c1ccc(Br)cc1)N2` the value was 8.9.

Test system in another assay: not listed separately
Nature of the assay: Agonist activity at human BKCa channel expressed in CHO cells assessed as increase in potassium current at 3 uM by PatchXpress electrophysiology assay relative to control. The class given is functional.
As for `O=C(O)c1ccc2c(c1)C1C=CCC[C@@H]1[C@@H](c1ccc(Cl)cc1Cl)N2` (single isomer, unassigned), the “fold change (FC)” value came out at 4.5.

As to `CS(=O)(=O)NC(=O)c1ccc2c(c1)[C@@H]1C=CC[C@@H]1[C@@H](c1ccc(Cl)cc1Cl)N2`, the “fold change (FC)” value is 2.7. Same read-out and setting: the value for `O=C(O)Cc1ccc2c(c1)[C@@H]1C=CC[C@@H]1[C@@H](c1ccc(Cl)cc1Cl)N2` was 1.5; that for `O=C(O)c1ccc2c(c1)[C@@H]1OCC[C@@H]1[C@@H](c1ccc(Cl)cc1Cl)N2` was 1.

Turning to `O=C(O)c1ccc2c(c1)[C@@H]1CCC[C@@H]1[C@@H](c1ccc(Cl)cc1Cl)N2`, the “fold change (FC)” value is reported as 4.6. Same read-out and setting: for `O=C(O)c1ccc2c(c1)[C@@H]1C(O)C(O)C[C@@H]1[C@@H](c1ccc(Cl)cc1Cl)N2` (some centres not stated) the value was 0.9. On the same count and under the same terms, for `OCc1ccc2c(c1)[C@@H]1C=CC[C@@H]1[C@@H](c1ccc(Cl)cc1Cl)N2` the value was 1.5; for `O=C(O)c1ccc2c(c1)CC[C@@H](c1ccc(Cl)cc1Cl)N2`, 0.9; for `O=C(O)c1ccc2c(c1)C1CCCC[C@@H]1[C@@H](c1ccc(Cl)cc1Cl)N2` (single isomer, unassigned), 3.6.

In the case of `O=c1[nH]c(-c2ccc3c(c2)[C@@H]2C=CC[C@@H]2[C@@H](c2ccc(Cl)cc2Cl)N3)no1`, the “fold change (FC)” value came out at 3.4. For `O=C(O)c1ccc2c(c1)[C@@H]1C=CC[C@@H]1[C@@H](c1ccc(Cl)cc1Cl)N2`, the “fold change (FC)” value worked out at 6.7. As to `O=C(O)c1ccc2c(c1)C1OCCC[C@@H]1[C@@H](c1ccc(Cl)cc1Cl)N2` (single isomer, unassigned), the “fold change (FC)” value is 1.5. Same read-out and setting: the value for `COC(=O)c1ccc2c(c1)[C@@H]1C=CC[C@@H]1[C@@H](c1ccc(Cl)cc1Cl)N2` was 1. Still for that read-out and setting: the value for `CONC(=O)c1ccc2c(c1)[C@@H]1C=CC[C@@H]1[C@@H](c1ccc(Cl)cc1Cl)N2` was 2.2; that for `O=C(O)c1ccc2nc(-c3ccc(Cl)cc3Cl)c3c(c2c1)CCC3` was 1.
